Values belong to the compound of their own block, whether it stands above or below them.
Assays:
[1] = system: leukocyte NADPH oxidase; assay: Effect on leukocyte NADPH oxidase (PMA-stimulated lucigenin chemiluminescence); format: cell-based, rat; conditions: for inhibitory rate (%), leukocyte NADPH oxidase: PMA-stimulated rat leukocytes, mean ± standard error; for inhibitory effect on leukocyte NADPH oxidase: result in words
Method: Blood was drawn from the abdominal aorta of normal male Wister rats (Japan SLC) and immediately mixed with an ice-cold lysis buffer at 42 mL of the buffer per 3 mL of the blood.
After 5 min, the mixture was centrifuged at 4° C., 1100 rpm for 5 min. The precipitate was suspended in an ice-cold Lysis buffer, and centrifuged again at 4° C., 1100 rpm for 5 min. This operation was repeated 3 times to obtain leukocytes. The obtained leukocytes were suspended in Krebs-Hepes buffer and the number of the cells was adjusted to 1×10^6/ml. 0.25 mM Lucigenin and the test agent were added, Phorbol 12-myristate 13-acetate (hereinafter to be indicated as “PMA”, SIGMA) was further added, and the chemiluminescence value was measured at 37° C. for 10 min.
The inhibitory rate (%) was calculated by the following formula: inhibitory rate (%)=100−[(A−C)/(B−C))×[…] wherein A is the total chemiluminescence value of the leukocyte suspension with the addition of the test compound, B is the total chemiluminescence value of the leukocyte suspension (control) without addition of the test compound, and C is the total chemiluminescence value of the leukocyte suspension without stimulation with PMA.

[2] = system: NAD(P)H oxidase in diabetic rat aorta; assay: Aorta NAD(P)H oxidase inhibitory effect, test compound added to aorta ring specimen in vitro; format: biochemical
Method: This ring specimen was preincubated in Krebs-Hepes buffer containing the test compound (compound A, compound B or DPI (SIGMA)) at 37° C. for 10 min, and then transferred to Krebs-Hepes buffer containing 0.25 mM lucigenin. […] The total value of chemiluminescence was calculated from AUC of the curve drawn by plotting the chemiluminescence value (vertical axis) relative to the measurement time (horizontal axis). The obtained chemiluminescence value was divided by the wet weight of the vascular ring specimen and standardized to the superoxide anion production per aorta unit weight.

[3] = system: NAD(P)H oxidase in normal rat aorta; assay: Effect on normal rat NAD(P)H oxidase (superoxide anion production in aorta after administration); format: in vivo; conditions: 10 mg/kg for 3 days
Method: The test compound (10 mg/kg) was administered to normal male Wistar rats (Japan SLC) for 3 days, and the production amount of superoxide anion in the aorta was measured in the same manner as in Experimental Example 2.
The inhibitory rate (%) was calculated by the following formula: inhibitory rate (%)=100−(A/B)×100 wherein A is the standardized chemiluminescence value of the rats administered with the test compound, and B is the standardized chemiluminescence value of the rats without administration of the test compound (control group).

[4] = system: NAD(P)H oxidase in diabetic rat aorta; assay: NAD(P)H oxidase activity (superoxide anion production, lucigenin chemiluminescence) in aorta of streptozotocin diabetic rats after oral administration; format: in vivo; conditions: once a day for 3 days
Method: Streptozotocin (40 mg/kg) dissolved in 0.05 M citric acid buffer (pH 4.5) was administered into the tail vein of male Wistar rats (Japan SLC) to prepare diabetic rats. At 1 week to 8 weeks from the intravenous injection of streptozotocin, blood was drawn from the tail vein using a capillary treated with heparin, which was immediately cooled with ice and centrifuged at 3000 rpm, 15 min, 4° C. to give serum. The blood glucose level was measured by enzyme assay using a glucose measurement kit “GLU neo sinotest” (sinotest) and a microplate reader (SPECTRA MAX250, Molecular Devices).
The NAD(P)H oxidase activity was measured by the following method, which was modified by the method of the David. G. Harrison et al. (J. Clin. Invest. 91, 2546-2551, 1993), at 4 days from the start of the test, with superoxide anion production in aorta as an index.
To be specific, normal rat or diabetic rat free of the above-mentioned treatment was exsanguinated from the abdominal aorta, their thoracic aorta was removed. The removed thoracic aorta was immersed in Krebs-Hepes buffer and marginal tissues were removed to prepare an about 5 mm ring specimen. This ring specimen was preincubate in Krebs-Hepes buffer at 37° C. for 10 min and transferred to Krebs-Hepes buffer containing 0.25 mM lucigenin (SIGMA). 500 μM NADH (SIGMA) was added and chemiluminescence value (chemiluminescence: unit RLU: relative light units) was measured using a luminometer (MULTI-BIOLUMAT LB9505C, Warrack.Berthold) at 37° C. for 10 min. The total value of chemiluminescence was calculated from the area under the curve (hereinafter to be referred to as “AUC”) drawn by plotting the chemiluminescence value (vertical axis) relative to the measurement time (horizontal axis). The measured total value of chemiluminescence was divided by the wet weight of the vascular ring specimen and standardized to the superoxide anion production per aorta unit weight.
The inhibitory rate (%) was calculated from the following formula: inhibitory rate (%)=100−[(A−C)/(B−C)]×100
wherein A was the standardized value of chemiluminescence of diabetic rat administered with the test compound, B was the standardized value of chemiluminescence of diabetic rat without administration of the test compound, and C was the standardized value of chemiluminescence of normal rat without administration of the test compound.

[5] = system: NAD(P)H oxidase; assay: IL-8 production inhibitory effect in HUVEC cultured with 44 mM glucose; format: cell-based, human; conditions: for IC50: from dose-effect line by least squares; for inhibitory rate (%) of IL-8 production: 8 days
Method: NAD(P)HOxidase Inhibitory Effect (Method)
44 mM glucose was added to Human Umbilical Vein Endothelial Cells (Bio Whittaker, hereinafter to be indicated as “HUVEC”), and cells were cultured for 8 days. Then, a lysis buffer containing a surfactant, Triton-X Nonidet P-40, was added, and interleukin-8 (hereinafter to be indicated as “IL-8”) in the cell lysate, which had been produced by NAD(P)H oxidase was measured by an enzyme-linked […]. The test compound was added one day before glucose addition.
The inhibitory rate was calculated from the following formula: inhibitory rate (%)=100−[(A−C)/(B−C)]×100
wherein A is IL-8 production of a cell cultured in the presence of 44 mM glucose with addition of the test compound, B is IL-8 production of a cell cultured in the presence of 44 mM glucose without addition of the test compound, and C is IL-8 production of a cell cultured in the absence of 44 mM glucose and the test compound. The IC50 value was calculated from the dose-effect line drawn by the least squares method based on the obtained inhibitory rate.

[6] = system: cerebral infarction model; assay: Cerebral infarction model (ischemic brain disorder model), ligation of both common carotid arteries; format: in vivo, mouse
Method: Male ICR mice (Japan SLC) were anesthetized with ether and fixed in the dorsal position. The both common carotid arteries were ligated using a thread. The wound was closed, and the mice were released in a cage. The death of the mouse was confirmed every 30 min up to 240 min, and cumulative mortality rate of each group was determined. Compound B was orally administered 1 hr before common carotid artery ligation.

[7] = test compound concentration 0.01 μM
[8] = test compound concentration 0.1 μM
[9] = test compound concentration 1 μM

Compound: c1ccc2c(c1)[I+]c1ccccc1-2 [DPI, diphenyleneiodonium, reference compound]
inhibitory rate (%), leukocyte NADPH oxidase ([1]; 200 μg/mL): 106.7 ± 0.2%
inhibitory effect on leukocyte NADPH oxidase [1]: showed an inhibitory effect on leukocyte NADPH oxidase
inhibitory rate (%) ([2]; 200 μM added to aorta ring in vitro): 45.1%
chemiluminescence (×10^5 RLU/wet weight of aorta) ([2]; 200 μM added to aorta ring in vitro, mean ± standard error): 5.2 ± 1.1 ×10^5 RLU/wet weight of aorta
NAD(P)H oxidase inhibitory effect on aorta ring in vitro ([2]; result in words): showed an NAD(P)H oxidase inhibitory effect

Compound: C[C@@H](Nc1nnc(-c2ccccc2)c2ccccc12)c1ccccc1 [compound B]
inhibitory rate (%), NAD(P)H oxidase in normal rat aorta [3]: −1.3%
effect on superoxide anion production in normal rat ([3]; result in words): did not affect the superoxide anion production
chemiluminescence (×10^5 RLU/wet weight of aorta) ([3]; normal rat aorta, mean ± standard error): 4.01 ± 6.0 ×10^5 RLU/wet weight of aorta
inhibitory rate (%), leukocyte NADPH oxidase ([1]; 1 μM): 11.7 ± 24.2%
inhibitory effect on leukocyte NADPH oxidase [1]: did not show an inhibitory effect on leukocyte NADPH oxidase
inhibitory rate (%), NAD(P)H oxidase in diabetic rat aorta ([4]; 10 mg/kg oral): 88.5%
IC50 [5]: < 10 nM
inhibitory rate (%) of IL-8 production [5, 7]: 63.8%
inhibitory rate (%) of IL-8 production [5, 8]: 77.8%
inhibitory rate (%) of IL-8 production [5, 9]: 72.0%
number of deaths in interval ([6]; 1 mg/kg oral 1 hr before ligation, 0-30 min): 15
number of deaths in interval ([6]; 1 mg/kg oral, 31-60 min): 2
number of deaths in interval ([6]; 1 mg/kg oral, 61-90 min): 2
number of deaths in interval ([6]; 1 mg/kg oral, 91-120 min): 0
number of deaths in interval ([6]; 1 mg/kg oral, 121-150 min): 0
number of deaths in interval ([6]; 1 mg/kg oral, 151-180 min): 0
number of deaths in interval ([6]; 1 mg/kg oral, 181-210 min): 0
number of deaths in interval ([6]; 1 mg/kg oral, 211-240 min): 0
cumulative mortality rate ([6]; 1 mg/kg oral, up to 30 min): 78.9%
cumulative mortality rate ([6]; 1 mg/kg oral, up to 60 min): 84.2%
cumulative mortality rate ([6]; 1 mg/kg oral, up to 90 min): 94.7%
number of deaths in interval ([6]; 3 mg/kg oral 1 hr before ligation, 0-30 min): 11
number of deaths in interval ([6]; 3 mg/kg oral, 31-60 min): 5
number of deaths in interval ([6]; 3 mg/kg oral, 61-90 min): 0
number of deaths in interval ([6]; 3 mg/kg oral, 91-120 min): 0
number of deaths in interval ([6]; 3 mg/kg oral, 121-150 min): 1
number of deaths in interval ([6]; 3 mg/kg oral, 151-180 min): 0
number of deaths in interval ([6]; 3 mg/kg oral, 181-210 min): 0
number of deaths in interval ([6]; 3 mg/kg oral, 211-240 min): 0
cumulative mortality rate ([6]; 3 mg/kg oral, up to 30 min): 57.9%
cumulative mortality rate ([6]; 3 mg/kg oral, up to 60 min): 84.2%
cumulative mortality rate ([6]; 3 mg/kg oral, up to 150 min): 89.5%
number of deaths in interval ([6]; 10 mg/kg oral 1 hr before ligation, 0-30 min): 8
number of deaths in interval ([6]; 10 mg/kg oral, 31-60 min): 6
number of deaths in interval ([6]; 10 mg/kg oral, 61-90 min): 2
number of deaths in interval ([6]; 10 mg/kg oral, 91-120 min): 1
number of deaths in interval ([6]; 10 mg/kg oral, 121-150 min): 0
number of deaths in interval ([6]; 10 mg/kg oral, 151-180 min): 0
number of deaths in interval ([6]; 10 mg/kg oral, 181-210 min): 0
number of deaths in interval ([6]; 10 mg/kg oral, 211-240 min): 0
cumulative mortality rate ([6]; 10 mg/kg oral, up to 30 min): 40.0%
cumulative mortality rate ([6]; 10 mg/kg oral, up to 60 min): 70.0%
cumulative mortality rate ([6]; 10 mg/kg oral, up to 90 min): 80.0%
cumulative mortality rate ([6]; 10 mg/kg oral, up to 120 min): 85.0%
mortality rate improving effect in brain ischemia model ([6]; result in words): a mortality rate improving effect was seen

Compound: CCOC(=O)c1nn(-c2ccccc2)c2ccccc2c1=O [compound E]
IC50 [5]: < 10 nM
inhibitory rate (%) of IL-8 production [5, 7]: 96.3%
inhibitory rate (%) of IL-8 production [5, 9]: 91.0%

Compound: N#Cc1nn(-c2ccccc2)c2ccccc2c1=O [compound F]
IC50 [5]: 943 nM
inhibitory rate (%) of IL-8 production [5, 7]: 0%
inhibitory rate (%) of IL-8 production [5, 8]: 0%
inhibitory rate (%) of IL-8 production [5, 9]: 54.5%

Further compounds by falling IC50 [5], results first:

IC50 [5]: 219 nM
Compound: N/C(=N\O)c1nn(-c2ccccc2)c2ccccc2c1=O [compound G]
inhibitory rate (%) of IL-8 production [5, 7]: 39.7%
inhibitory rate (%) of IL-8 production [5, 8]: 43.9%
inhibitory rate (%) of IL-8 production [5, 9]: 57.4%

IC50 [5]: 69 nM
Compound: Cc1cc(C)n(-c2nnc(-c3ccccc3)c3ccccc23)n1 [compound H]
inhibitory rate (%) of IL-8 production [5, 7]: 27.6%
inhibitory rate (%) of IL-8 production [5, 8]: 49.9%
inhibitory rate (%) of IL-8 production [5, 9]: 83.0%

IC50 [5]: 15.4 nM
Compound: O=C(O)c1nn(-c2ccccc2)c2ccccc2c1=O [compound C]
inhibitory rate (%), NAD(P)H oxidase in diabetic rat aorta ([4]; 0.01 mg/kg oral): 45%
inhibitory rate (%), NAD(P)H oxidase in diabetic rat aorta ([4]; 0.1 mg/kg oral): 90%
inhibitory rate (%) of IL-8 production [5, 7]: −2.5%
inhibitory rate (%) of IL-8 production [5, 8]: 53.7%
inhibitory rate (%) of IL-8 production [5, 9]: 97.7%

IC50 [5]: 11.1 nM
Compound: NC(=O)c1nn(-c2ccccc2)c2ccccc2c1=O [compound D]
inhibitory rate (%), NAD(P)H oxidase in diabetic rat aorta ([4]; 0.01 mg/kg oral): 44%
inhibitory rate (%), NAD(P)H oxidase in diabetic rat aorta ([4]; 0.1 mg/kg oral): 72%
inhibitory rate (%) of IL-8 production [5, 7]: 45.4%
inhibitory rate (%) of IL-8 production [5, 8]: 98.3%
inhibitory rate (%) of IL-8 production [5, 9]: 100%
